{
  "source": "ChEMBL document CHEMBL3880411",
  "about": "“Multikinase inhibitors for use in the treatment of cancer” (2009)",
  "key": {"[1]": {"target": "Tyrosine-protein kinase ABL1 (Homo sapiens) (UniProt P00519)", "sequence (P00519 whole entry)": "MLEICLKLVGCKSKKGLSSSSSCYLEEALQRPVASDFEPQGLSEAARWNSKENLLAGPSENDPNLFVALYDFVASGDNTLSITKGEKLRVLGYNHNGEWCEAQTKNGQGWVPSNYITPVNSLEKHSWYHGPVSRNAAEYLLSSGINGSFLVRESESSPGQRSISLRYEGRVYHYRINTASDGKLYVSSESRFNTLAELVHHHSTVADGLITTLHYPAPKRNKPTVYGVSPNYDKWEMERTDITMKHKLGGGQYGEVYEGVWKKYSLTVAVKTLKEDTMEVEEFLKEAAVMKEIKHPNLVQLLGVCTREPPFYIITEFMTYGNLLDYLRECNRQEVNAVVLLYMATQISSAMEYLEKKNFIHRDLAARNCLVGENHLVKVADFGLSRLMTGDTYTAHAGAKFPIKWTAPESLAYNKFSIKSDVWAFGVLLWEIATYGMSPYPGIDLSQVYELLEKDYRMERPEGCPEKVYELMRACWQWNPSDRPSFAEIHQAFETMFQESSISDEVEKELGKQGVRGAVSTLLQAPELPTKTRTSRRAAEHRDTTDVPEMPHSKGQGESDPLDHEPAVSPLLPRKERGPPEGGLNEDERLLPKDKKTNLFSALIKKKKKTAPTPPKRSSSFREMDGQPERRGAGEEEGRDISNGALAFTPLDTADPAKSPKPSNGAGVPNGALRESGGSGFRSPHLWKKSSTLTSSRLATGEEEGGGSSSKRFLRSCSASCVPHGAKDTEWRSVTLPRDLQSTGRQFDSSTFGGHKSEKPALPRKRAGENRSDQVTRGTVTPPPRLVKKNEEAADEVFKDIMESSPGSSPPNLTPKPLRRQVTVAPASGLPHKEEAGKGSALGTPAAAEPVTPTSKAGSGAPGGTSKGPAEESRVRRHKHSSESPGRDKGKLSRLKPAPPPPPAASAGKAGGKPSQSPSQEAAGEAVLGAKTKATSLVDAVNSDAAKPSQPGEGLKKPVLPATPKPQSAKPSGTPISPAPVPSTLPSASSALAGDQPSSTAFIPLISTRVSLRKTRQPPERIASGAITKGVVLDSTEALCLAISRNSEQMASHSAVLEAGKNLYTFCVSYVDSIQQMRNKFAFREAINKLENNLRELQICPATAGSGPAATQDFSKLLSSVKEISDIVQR", "assay": "Inhibition of human Abl assessed as remaining activity at 1 uM after 40 mins in presence of [gamma33P-ATP] by scintillation counting"}, "[2]": {"target": "Receptor-type tyrosine-protein kinase FLT3 (Homo sapiens) (UniProt P36888)", "sequence (P36888 whole entry)": "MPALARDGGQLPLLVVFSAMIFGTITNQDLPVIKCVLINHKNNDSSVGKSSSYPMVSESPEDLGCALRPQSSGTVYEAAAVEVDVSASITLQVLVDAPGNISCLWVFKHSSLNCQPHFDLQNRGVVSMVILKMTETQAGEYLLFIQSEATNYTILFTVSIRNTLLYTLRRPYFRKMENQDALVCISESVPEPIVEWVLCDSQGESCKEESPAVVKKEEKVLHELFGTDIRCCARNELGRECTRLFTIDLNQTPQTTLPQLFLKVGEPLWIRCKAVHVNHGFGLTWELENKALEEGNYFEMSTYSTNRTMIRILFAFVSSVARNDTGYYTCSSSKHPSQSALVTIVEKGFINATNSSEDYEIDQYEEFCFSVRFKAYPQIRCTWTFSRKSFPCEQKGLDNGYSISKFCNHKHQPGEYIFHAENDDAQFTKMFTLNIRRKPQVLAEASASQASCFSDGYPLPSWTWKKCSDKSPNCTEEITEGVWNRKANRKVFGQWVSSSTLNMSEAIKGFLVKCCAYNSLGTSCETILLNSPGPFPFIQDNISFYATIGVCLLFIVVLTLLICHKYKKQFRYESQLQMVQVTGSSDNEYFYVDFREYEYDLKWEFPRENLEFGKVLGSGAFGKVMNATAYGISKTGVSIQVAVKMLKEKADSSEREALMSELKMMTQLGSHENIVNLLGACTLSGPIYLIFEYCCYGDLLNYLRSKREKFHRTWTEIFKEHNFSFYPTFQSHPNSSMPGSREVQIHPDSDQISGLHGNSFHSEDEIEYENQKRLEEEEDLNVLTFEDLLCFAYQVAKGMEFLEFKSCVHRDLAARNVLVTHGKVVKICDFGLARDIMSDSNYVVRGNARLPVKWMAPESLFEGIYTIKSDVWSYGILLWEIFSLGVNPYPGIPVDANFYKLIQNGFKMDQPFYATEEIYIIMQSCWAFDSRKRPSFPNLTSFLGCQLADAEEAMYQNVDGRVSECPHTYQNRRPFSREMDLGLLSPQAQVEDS", "assay": "Inhibition of human Flt3 assessed as remaining activity at 0.1 uM after 40 mins in presence of [gamma33P-ATP] by scintillation counting"}, "[3]": {"target": "Receptor-type tyrosine-protein kinase FLT3 (Homo sapiens) (UniProt P36888)", "assay": "Inhibition of human Flt3 assessed as remaining activity at 1 uM after 40 mins in presence of [gamma33P-ATP] by scintillation counting"}, "[4]": {"target": "Tyrosine-protein kinase Lyn (Homo sapiens) (UniProt P07948)", "sequence (P07948 2-512 limits assumed)": "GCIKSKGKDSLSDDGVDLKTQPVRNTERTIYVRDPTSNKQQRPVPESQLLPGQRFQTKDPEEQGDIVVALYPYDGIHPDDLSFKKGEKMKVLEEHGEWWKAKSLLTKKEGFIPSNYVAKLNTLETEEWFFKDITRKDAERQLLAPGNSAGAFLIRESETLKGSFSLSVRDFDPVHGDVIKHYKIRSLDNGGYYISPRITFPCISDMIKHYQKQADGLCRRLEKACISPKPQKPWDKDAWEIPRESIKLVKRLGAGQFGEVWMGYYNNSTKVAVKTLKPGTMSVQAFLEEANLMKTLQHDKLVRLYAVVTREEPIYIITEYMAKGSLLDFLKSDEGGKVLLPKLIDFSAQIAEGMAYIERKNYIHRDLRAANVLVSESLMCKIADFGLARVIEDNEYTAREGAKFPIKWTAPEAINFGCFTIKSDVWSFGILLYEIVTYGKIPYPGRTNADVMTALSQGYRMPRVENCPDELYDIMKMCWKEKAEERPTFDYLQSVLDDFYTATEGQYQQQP", "assay": "Inhibition of human Lyn assessed as remaining activity at 1 uM after 40 mins in presence of [gamma33P-ATP] by scintillation counting"}, "[5]": {"assay": "Cytotoxicity against human SK-MEL-31 cells expressing B-RAF V600E mutant assessed as reduction in cell viability after 96 hrs by CellTiter-Glo luminescence assay or methylene blue assay", "format": "functional, cell-based"}, "[6]": {"assay": "Cytotoxicity against human SW620 cells expressing K-ras G12V mutant assessed as reduction in cell viability after 96 hrs by CellTiter-Glo luminescence assay or methylene blue assay", "format": "functional, cell-based", "settings": "SW-620, 96 h"}, "[7]": {"assay": "Cytotoxicity against human MES-SA/Dx5-Rx1 cells assessed as reduction in cell viability after 96 hrs by CellTiter-Glo luminescence assay or methylene blue assay", "format": "functional, cell-based"}, "[8]": {"assay": "Antiproliferative activity against human THP1 cells after 96 hrs by MTT assay", "format": "functional, cell-based", "settings": "THP-1, 96 h"}, "[9]": {"assay": "Antiproliferative activity against human K562 cells after 96 hrs by MTT assay", "format": "functional, cell-based", "settings": "K562, 96 h"}, "[10]": {"system": "Receptor-type tyrosine-protein kinase FLT3 (Homo sapiens), P36888 [UNDEFINED MUTATION]", "sequence (P36888 whole entry, looked up, change not shown)": "as the sequence (P36888 whole entry) above", "assay": "Inhibition of Flt-3 activation mutant phosphorylation in human MV4-11 cells after 24 hrs by Western blot analysis", "format": "cell-based"}},
  "data": [
    {"smiles": "CCNc1cc(O)c2c(c1)/C=C/C[C@H](O)[C@H](O)C(=O)/C=C\\[C@@H](C)[C@H](C)OC2=O", "note": "[E-6201]", "values": [
      {"measurement": "Activity", "setting": "[1]", "result": 15, "unit": "%"},
      {"measurement": "Activity", "setting": "[2]", "result": 33, "unit": "%"},
      {"measurement": "Activity", "setting": "[3]", "result": 6, "unit": "%"},
      {"measurement": "Activity", "setting": "[4]", "result": 2, "unit": "%"},
      {"measurement": "IC50", "setting": "[5]", "result": 225, "unit": "nM"},
      {"measurement": "IC50", "setting": "[6]", "result": 282, "unit": "nM"},
      {"measurement": "IC50", "setting": "[7]", "result": 1590, "unit": "nM"},
      {"measurement": "IC50", "setting": "[8]", "result": 120, "unit": "nM"},
      {"measurement": "IC50", "setting": "[9]", "result": 1800, "unit": "nM"},
      {"measurement": "inhibition", "setting": "[10]", "result": "Dose-dependent effect"}
    ]}
  ]
}
